What was measured:
[1] = Electrophoretic mobility (ue) measurements as a function of pH; assay type: physicochemical
Experimental: Electrophoretic mobility (ue) measurements were performed in a Malvern Zetasizer 2000 apparatus (Malvern Instruments, England) at room temperature. Measurements were carried out 24 hours after the preparation of the suspensions, and the pH was readjusted immediately before the mobility was measured. In FIG. 1. electrophoretic mobility as a function of the pH of the gold nanoparticles, creatine, gold-creatine composite particles, and albumin are shown. As observed, the gold nanoparticles present a negative electrophoretic mobility (ue) over the whole range of pH, characteristic of the citrate molecules adsorbed on them, becoming more negative with pH increase. […] On the contrary, albumin molecules present an isoelectric point between pH 4.5-5, becoming more negative with pH increase.

[2] = albumin alone; stated without own test; cited from earlier work

Row | electrophoretic mobility (ue) ([1]; acidic conditions) | electrophoretic mobility (ue) ([1]; whole range of pH) | Compound | isoelectric point [1] | crossing of the blood brain barrier [2]
1 | very close to zero | negative | CN(CC(=O)O)C(=N)N [Creatine] | – | –
2 | – | – | albumin | 4.5-5 pH | not able to cross the blood brain barrier

— patent US20110111040A1, “POLYELECTROLYTE-ENCAPSULATED GOLD NANOPARTICLES CAPABLE OF CROSSING BLOOD-BRAIN BARRIER” (priority 2008, published 2011)
